Source: patent publication US11691977B2, “Cyclic ether derivatives of pyrazolo[1,5-A]pyrimidine-3-carboxyamide” (Boehringer Ingelheim International GmbH, priority 2015, dated 2023)

How the values were obtained:
[1] = target: PDE 2A (Homo sapiens (Human), UniProt O00408); test: Phosphodiesterase (PDE) 2A assay with fluorescent substrate (IMAP, fluorescence polarization); format: biochemical; conditions: PDE2A, read-out: PDE2 IC50
Method: (§1) The IMAP system (Molecular Device) using fluorescence polarization (FP) as detection principle was used to measure enzyme activity. A fluorescent labeled cAMP was used as substrate for the reaction, generating a labeled AMP. The fluorescent AMP binds specifically to the large M(III)-based nano-particles which reduces the rotational speed of the substrate and thus increases its polarization. Detailed Method: The inhibition of PDE 2A or 10 enzyme activity was assessed using IMAP-Phosphodiesterase-cAMP fluorescence labeled substrate (Molecular Devices, Order No. R7506), IMAP TR-FRET screening express (Molecular Devices, Order No. R8160, the TR-FRET component will not be used) and PDE 2A or PDE10 protein expressed upon baculovirus infection in SF9 cells. The cells were incubated after infection for ˜3 days and protein production was confirmed by Western Blot. The cells were collected by centrifugation and the pellet frozen in liquid nitrogen before it was resuspended in PBS containing 1% Triton X-100 and protease inhibitors. After 45 min incubation on ice, the cell debris was removed by centrifugation (13.000 rpm, 30 min). […] All reactions were performed in 384 well plates, Perkin Elmer black optiplates and IMAP reaction buffer with 0.1% Tween20 (kit component) Compounds were serial diluted in DMSO. […] Reaction is stopped by adding of 60 μl binding buffer for FP/cAMP (kit component).

[2] = target: PDE10 (Homo sapiens (Human), UniProt Q9Y233); test: Phosphodiesterase (PDE) 10 assay with fluorescent substrate (IMAP, fluorescence polarization); format: biochemical
Method: as §1

[3] = test system: human MDR1 P-gp; test: Assessment of efflux in MDCK cells transfected with the human MDR1 gene (MDCK assay); format: in vitro ADME, canine; conditions: dog
Method: Assessment of Efflux in Madin-Darby Canine Kidney Cells Transfected with the Human MDR1 Gene (MDCK Assay)
Apparent permeability coefficients (PE) of the compounds across the MDCK-MDR1 cell monolayers are measured (pH 7.4, 37° C.) in apical-to-basal (AB) and basal-to-apical (BA) transport direction. AB permeability (PEAB) represents drug absorption from the blood into the brain and BA permeability (PEBA) drug efflux from the brain back into the blood via both passive permeability as well as active transport mechanisms mediated by efflux and uptake transporters that are expressed on the MDCK-MDR1 cells, predominantly by the overexpressed human MDR1 P-gp. The compounds are assigned to permeability/absorption classes by comparison of the AB permeabilities with the AB permeabilities of reference compounds with known in vitro permeability and oral absorption in the human. Identical or similar permeabilities in both transport directions indicate passive permeation, vectorial permeability points to additional active transport mechanisms. Higher PEBA than PEAB indicates the involvement of active efflux mediated by MDR1 P-gp. […]
MDCK-MDR1 cells (1-2×10e5 cells/1 cm2 area) are seeded on filter inserts (Costar transwell polycarbonate or PET filters, 0.4 μm pore size) and cultured (DMEM) for 7 days. […] Efflux ratio is calculated dividing the Papp (b-a) values by the Papp (a-b) values.

PDE 2A, sequence (O00408 whole entry, species assumed): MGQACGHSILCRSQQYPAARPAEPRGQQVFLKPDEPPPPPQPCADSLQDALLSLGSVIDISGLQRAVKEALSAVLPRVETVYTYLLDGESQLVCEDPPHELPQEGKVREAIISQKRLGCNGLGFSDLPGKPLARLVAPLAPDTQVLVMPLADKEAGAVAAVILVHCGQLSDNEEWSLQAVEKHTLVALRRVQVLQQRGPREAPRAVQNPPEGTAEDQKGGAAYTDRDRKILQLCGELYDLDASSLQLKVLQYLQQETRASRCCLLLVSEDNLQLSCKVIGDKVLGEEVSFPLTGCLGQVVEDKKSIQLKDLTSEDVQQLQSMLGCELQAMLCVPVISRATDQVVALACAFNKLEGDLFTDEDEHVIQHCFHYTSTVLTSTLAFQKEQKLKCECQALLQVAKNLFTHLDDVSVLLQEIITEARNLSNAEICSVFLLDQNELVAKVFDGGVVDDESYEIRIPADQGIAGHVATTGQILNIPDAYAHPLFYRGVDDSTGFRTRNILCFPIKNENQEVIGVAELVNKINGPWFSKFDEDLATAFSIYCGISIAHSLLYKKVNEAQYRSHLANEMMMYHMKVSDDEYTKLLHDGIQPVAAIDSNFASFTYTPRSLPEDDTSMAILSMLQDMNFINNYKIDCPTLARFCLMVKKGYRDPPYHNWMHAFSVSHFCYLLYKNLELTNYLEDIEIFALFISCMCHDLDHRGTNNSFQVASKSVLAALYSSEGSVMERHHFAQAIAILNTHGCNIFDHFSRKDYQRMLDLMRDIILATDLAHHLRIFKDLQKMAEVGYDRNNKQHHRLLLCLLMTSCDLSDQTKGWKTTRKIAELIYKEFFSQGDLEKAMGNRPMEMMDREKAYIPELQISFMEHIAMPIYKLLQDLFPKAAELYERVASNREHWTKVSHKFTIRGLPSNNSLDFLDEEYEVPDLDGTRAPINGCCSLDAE
PDE10, sequence (Q9Y233 whole entry): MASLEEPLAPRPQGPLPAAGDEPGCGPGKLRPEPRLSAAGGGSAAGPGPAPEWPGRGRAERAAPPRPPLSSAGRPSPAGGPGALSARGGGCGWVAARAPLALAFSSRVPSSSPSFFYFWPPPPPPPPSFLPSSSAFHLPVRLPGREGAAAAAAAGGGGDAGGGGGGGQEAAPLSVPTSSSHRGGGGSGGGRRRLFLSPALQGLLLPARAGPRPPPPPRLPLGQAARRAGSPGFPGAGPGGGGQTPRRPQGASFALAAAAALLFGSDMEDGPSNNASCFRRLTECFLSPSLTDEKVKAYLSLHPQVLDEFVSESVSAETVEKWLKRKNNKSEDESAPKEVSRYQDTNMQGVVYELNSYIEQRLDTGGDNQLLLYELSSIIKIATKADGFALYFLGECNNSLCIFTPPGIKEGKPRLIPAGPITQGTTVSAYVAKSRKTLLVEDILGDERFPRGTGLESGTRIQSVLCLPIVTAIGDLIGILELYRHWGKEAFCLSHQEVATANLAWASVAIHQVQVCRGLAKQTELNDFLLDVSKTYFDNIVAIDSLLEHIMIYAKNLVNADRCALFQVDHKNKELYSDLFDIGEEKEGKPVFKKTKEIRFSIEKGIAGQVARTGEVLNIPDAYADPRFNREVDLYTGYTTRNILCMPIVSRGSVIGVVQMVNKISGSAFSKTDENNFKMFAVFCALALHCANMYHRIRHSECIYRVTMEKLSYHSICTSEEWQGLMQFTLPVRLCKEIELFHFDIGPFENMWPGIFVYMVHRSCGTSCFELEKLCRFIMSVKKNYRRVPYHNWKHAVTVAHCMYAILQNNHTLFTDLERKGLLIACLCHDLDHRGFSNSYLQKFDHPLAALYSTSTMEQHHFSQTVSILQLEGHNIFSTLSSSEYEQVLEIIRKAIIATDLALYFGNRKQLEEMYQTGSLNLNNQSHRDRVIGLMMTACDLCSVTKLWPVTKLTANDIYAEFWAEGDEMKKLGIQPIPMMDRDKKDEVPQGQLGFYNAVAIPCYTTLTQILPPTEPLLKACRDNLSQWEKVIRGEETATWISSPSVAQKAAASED

IC50 [1]: 0.088 µM
IC50 [2]: 9.07 µM
efflux ratio ([3]; pH 7.4, MDCK-MDR1, Papp (b-a) divided by Papp (a-b)): 0.8
Papp A→B ([3]; MDCK-MDR1, apical-to-basal, pH 7.4, 37° C.): 100 ×10⁻⁶ cm/s
Compound: Cc1nn2cc(C3CC3)cnc2c1C(=O)NC1(c2ccc(C(F)(F)F)cn2)CCOCC1 [Example 25]
